Reference: patent publication US20020142995A1, “Ammonium salts of hemoglobin allosteric effectors, and uses thereof” (priority 2000, published 2002)
Values joined by “and” are separate entries in the source; they are usually repeats but may differ in a detail not shown here. Equal entries are not always repeated. Where two headings read alike, the source gives them in different places.

Experiments:
stripped hemoglobin = stripped hemoglobin (Homo sapiens, UniProt P68871); conditions: cited from earlier work
stripped hemoglobin, sequence (P69905 2-142 partner limits assumed): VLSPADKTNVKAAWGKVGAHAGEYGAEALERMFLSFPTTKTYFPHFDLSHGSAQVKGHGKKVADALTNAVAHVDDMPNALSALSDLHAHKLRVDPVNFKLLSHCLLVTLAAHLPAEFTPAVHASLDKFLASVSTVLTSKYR
stripped hemoglobin, sequence (P68871 2-147 limits assumed): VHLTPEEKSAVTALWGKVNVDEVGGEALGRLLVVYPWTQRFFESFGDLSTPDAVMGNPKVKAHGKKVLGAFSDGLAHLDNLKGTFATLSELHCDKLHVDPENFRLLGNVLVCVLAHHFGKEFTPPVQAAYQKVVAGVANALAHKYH

goldfish free hemoglobin = molecular target: T1, goldfish free hemoglobin (Carassius auratus, UniProt P02018+P02140); assay: Oxygen dissociation curves of goldfish free hemoglobin with allosteric effectors; type: biochemical; set-up: unit not given beside the values
T1 construct: human and goldfish free hemoglobin controls; from tissue; host or cells: goldfish blood (erythrocyte hemoglobin freed from cells); inferred from 'free hemoglobin' beside 'whole blood'
T1 sequence (P02140 1-147): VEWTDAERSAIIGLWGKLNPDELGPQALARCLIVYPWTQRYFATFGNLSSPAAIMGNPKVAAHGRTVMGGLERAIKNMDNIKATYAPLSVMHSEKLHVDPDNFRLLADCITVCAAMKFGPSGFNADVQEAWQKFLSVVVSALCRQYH
T1 sequence (P02018 1-142): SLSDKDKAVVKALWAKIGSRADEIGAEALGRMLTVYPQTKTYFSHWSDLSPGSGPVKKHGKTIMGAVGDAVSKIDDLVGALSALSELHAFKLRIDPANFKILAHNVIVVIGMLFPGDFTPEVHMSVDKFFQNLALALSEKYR
Experimental: FIG. 3 tabulates the P50 values of human and goldfish whole blood controls, human and goldfish free hemoglobin controls, and goldfish free hemoglobin that has been pre-incubated with various allosteric effectors and an ammonium salt of one of them.
FIG. 5 depicts oxygen dissociation curves of human free hemoglobin (pH 7.1; […]), goldfish free hemoglobin (pH 7.1; P50=8.5), and goldfish free hemoglobin+0.25 μmol IHP (pH 7.1; P50=15.0).
FIG. 6 depicts oxygen dissociation curves of goldfish free hemoglobin+0.5 μmol PCHA-DPG (pH 7.1; P50=10.3), goldfish free hemoglobin+0.5 μmol ATP (pH 7.08; P50=21.0), and goldfish free hemoglobin+0.5 μmol GTP (pH 7.11; P50=23.0).

whole blood = assay: Blood oxygen dissociation (Hemox Analyzer) of whole blood pre-incubated with effector; type: cell-based; set-up: Observed P50: unit not given here; conditions: for change of the P50 of treated Red Blood Cells vs. control: observation, whole blood incubated with effector; for P50 of treated-washed RBC pellet vs. control: after resuspended in HBS
Experimental: Whole blood was collected from one subject. The blood was stored in a Vacutainer with Solution A (ACD) and stored at 4-8° C.
Effector characteristics prior to incubation were:
(see Summary of Results below).
Washes: After incubation of whole blood with/without effector, blood cells were washed four times with Saline buffer or HBS (BSA) by centrifugal pelleting to remove exogenous effector and to evaluate hemolysis. […]
Blood Oxygen Dissociation Reading: Blood Oxygen Dissociation of samples were determined using a Hemox Analizer Model B (TCS Medical Products Company, New Hope, Pa.) The sample chamber contained:
10-20 μL Pelleted Blood Cells incubated with Effector.
All readings were made at 36.7-37.2° C. and at pH 7.28-7.32. The P50S were calculated from the Dissociation Curves (see FIGS. 16-23) compared to same day control P50.

[1] = Visual appearance of effector solution; type: physicochemical
Experimental: Preparation of Effector Stock: Effector stock was prepared at 100-120 mM (Molal solution) using water or Bis-Tris Buffer.

Red Blood Cells = assay: Aggregation of red blood cells after incubation with effector; type: cell-based; conditions: whole blood incubated with effector
Experimental: Incubation: Whole blood (75-300 μL) was incubated with 200 μL of effector at 37° C. for 5-10 min. (see Summary of Results below).
Washes: After incubation of whole blood with/without effector, blood cells were washed four times with Saline buffer or HBS (BSA) by centrifugal pelleting to remove exogenous effector and to evaluate hemolysis. After final centrifugation, pellet was not resuspended.

human RBCs = conditions: IHP encapsulated in human RBCs by electroporation; cited from earlier work
[2] = molecular target: allosteric site on hemoglobin (Homo sapiens, UniProt P68871); conditions: displaces hemoglobin-bound 2,3-DPG; cited from earlier work
allosteric site on hemoglobin, sequence (P69905 2-142 partner limits assumed): as the sequence (P69905 2-142 partner limits assumed) above
allosteric site on hemoglobin, sequence (P68871 2-147 limits assumed): as the sequence (P68871 2-147 limits assumed) above

[3] = goldfish free hemoglobin + 0.5 μmol effector, pH 7.08-7.11
[4] = 75 μL whole blood incubated (2-5 min) with 200 μL 30 mM effector, washed 4×, 15 μL RBC measured at 37° C.

| Molecule | P50 (goldfish free hemoglobin; [3]) | Observed P50 (whole blood; [4]) | change of the P50 of treated Red Blood Cells vs. control (whole blood) | appearance of the solution [1] | aggregation of Red Blood Cells (Red Blood Cells) | also measured |
| --- | --- | --- | --- | --- | --- | --- |
| O=C(O)C(COP(=O)(O)O)OP(=O)(O)O (stereo not drawn) [2,3-Diphosphoglycerate] | – | – | – | – | – | half-saturation pressure P(O2) (½) (stripped hemoglobin; pH 7.4, 25 C.): 12.0 mm Hg; half-saturation pressure P(O2) (½) (stripped hemoglobin; pH 7.4, 37 C.): 23.7 mm Hg |
| Nc1ncnc2c1ncn2[C@@H]1O[C@H](COP(=O)(O)OP(=O)(O)OP(=O)(O)O)[C@@H](O)[C@H]1O [ATP, adenosine triphosphate] | 21.0 | – | – | – | – | – |
| NC1CCCCC1 [CHA, Cyclohexylamine] | – | 28.5 and 26.8 | No change | visually clear | no aggregation | – |
| Nc1nc2c(ncn2[C@@H]2O[C@H](COP(=O)(O)OP(=O)(O)OP(=O)(O)O)[C@@H](O)[C@H]2O)c(=O)[nH]1 [GTP] | 23.0 | – | – | – | – | – |
| O=P(O)(O)O[C@H]1[C@H](OP(=O)(O)O)[C@@H](OP(=O)(O)O)[C@H](OP(=O)(O)O)[C@@H](OP(=O)(O)O)[C@H]1OP(=O)(O)O [IHP, myo-inositol hexakis (dehydrogen Phosphate)] | – | – | No change | visually clear | no aggregation | half-saturation pressure P(O2) (½) (stripped hemoglobin; pH 7.4, 25 C.): 48.4 mm Hg; half-saturation pressure P(O2) (½) (stripped hemoglobin; pH 7.4, 37 C.): 96.4 mm Hg; P50 (goldfish free hemoglobin; goldfish free hemoglobin + 0.25 μmol effector, pH 7.1): 15.0; Observed P50 (whole blood; 75 μL whole blood + 200 μL 30 mM effector, 2-5 min, 37° C., Hypotonic, Osm: 185 mOsM): 37.5; P50 of modified RBCs (human RBCs): approximately 50 torr; affinity for the allosteric site relative to 2,3-DPG [2]: one-thousand times greater affinity |
| NC1CCCCC1.NC1CCCCC1.NC1CCCCC1.NC1CCCCC1.NC1CCCCC1.O=C(O)[C@@H](COP(=O)(O)O)OP(=O)(O)O [PCHA-DPG, 2,3 Diphospho-D-Glyceric Acid (Pentacyclohexyclammonium salt)] | 10.3 | 50.5 and 47.3 and 36.0 | Increases the P50 | visually clear | no aggregation | P50 of treated-washed RBC pellet vs. control (whole blood): maintain higher P50 than the control |
| O=C([O-])[C@@H](COP(=O)([O-])[O-])OP(=O)([O-])[O-].[Na+].[Na+].[Na+].[Na+].[Na+] [PNa-DPG, 2,3 Diphospho-D-Glyceric Acid (Pentasodium salt)] | – | 38.2 | No change | visually clear | no aggregation | Observed P50 (whole blood; 75 μL whole blood + 200 μL 30 mM effector, 2-5 min, 37° C., Hypotonic, Osm: 163 mOsM): 37.5; Observed P50 (whole blood; 75 μL whole blood + 200 μL 30 mM effector, 2-5 min, 37° C., Isotonic, Osm: 321 mOsM): 39.6 |
| Cyclohexylammonium-Inositol Hexaphosphate [CHA-IHP] | – | 42.0 and 58.2 and 32.8 | Increases the P50 | visually clear | no aggregation | Observed P50 (whole blood; 75 μL whole blood + 200 μL 30 mM effector, washed 4×, cell pellet stored for 48 hrs at 4-8° C., measured at 37° C.): 50.5; P50 of treated-washed RBC pellet vs. control (whole blood): maintain higher P50 than the control; P50 EFF:WB (whole blood; same sample as FIG. 12C, evaluated 48 h later (stored at 4-8 C.), 25 mM, 171 mOsM): 50.5 mmHg |
